# Experimental data reported in DBAASP.
# Key:
# Experiment in all cases: ≥ marks a high value that may be exact or a test limit, other limits are often not marked, values filed in µg/mL are converted to µM
# [1] = test system: Bacillus subtilis ATCC 6051
# [2] = test system: Escherichia coli ATCC 25922
# [3] = test system: Escherichia coli NEB5alpha
# Escherichia coli K-12 = test system: Escherichia coli K-12
# [4] = test system: Pseudomonas aeruginosa ATCC 27853
# [5] = test system: Enterococcus faecium ATCC 700221
# [6] = test system: Staphylococcus aureus ATCC 33591
# Klebsiella pneumoniae = test system: Klebsiella pneumoniae
# [7] = test system: Pseudomonas aeruginosa PAO1
# [8] = test system: Staphylococcus aureus NCTC 8325-4
# [9] = test system: Staphylococcus aureus USA 300
# [10] = test system: Bacillus subtilis KCTC 3068
# [11] = test system: Escherichia coli KCTC 1682
# [12] = test system: Pseudomonas aeruginosa KCTC 1637
# [13] = test system: Salmonella typhimurium KCTC 1926
# [14] = test system: Staphylococcus aureus KCTC 1621
# [15] = test system: Staphylococcus epidermidis KCTC 1917
# [16] = test system: Candida albicans NCYC 1467
# [17] = test system: Escherichia coli NCTC 10418
# [18] = test system: Staphylococcus aureus NCTC 10788
compound,measurement,setting,value
CC[C@H](C)[C@H](NC(=O)[C@H](Cc1c[nH]c2ccccc12)NC(=O)[C@@H]1CCCN1C(=O)[C@H](CCCCN)NC(=O)[C@H](CCSC)NC(=O)[C@H](C)NC(=O)[C@H](CCCCN)NC(=O)[C@H](CCC(N)=O)NC(=O)[C@H](Cc1cnc[nH]1)NC(=O)[C@H](CCC(N)=O)NC(=O)[C@H](Cc1ccc(O)cc1)NC(=O)[C@@H](NC(=O)[C@@H](N)[C@@H](C)O)C(C)C)C(=O)N[C@@H](CCC(N)=O)C(=O)N1CCC[C@H]1C(=O)N[C@@H](CCCCN)C(=O)N[C@H](C(=O)N[C@@H](CCCCN)C(=O)N[C@H](C(=O)N[C@H](C(=O)N1CCC[C@H]1C(=O)N[C@@H](Cc1ccc(O)cc1)C(=O)N[C@H](C(=O)N[C@@H](CCCN=C(N)N)C(=O)N[C@@H](Cc1ccc(O)cc1)C(=O)N[C@@H](CC(C)C)C(=O)O)C(C)C)[C@@H](C)CC)C(C)C)[C@@H](C)O [TVYQHQKAMKPWIQPKTKVIPYVRYL],MIC,[1],2.67 µM
same,MIC,[2],171 µM
same,MIC,[3],21.4 µM
CC[C@H](C)[C@H](NC(=O)[C@@H]1CCCN1C(=O)[C@H](CCSC)NC(=O)[C@H](CC(=O)O)NC(=O)[C@H](CCCN=C(N)N)NC(=O)[C@H](CCC(N)=O)NC(=O)[C@@H]1CCCN1C(=O)[C@H](Cc1ccc(O)cc1)NC(=O)[C@@H]1CCCN1C(=O)[C@@H](N)C(C)C)C(=O)N[C@@H](CCC(N)=O)C(=O)N[C@@H](C)C(=O)N[C@@H](Cc1ccccc1)C(=O)N[C@@H](CC(C)C)C(=O)O [VPYPQRDMPIQAFL],MIC,[3],≥ 493 µM
CC[C@H](C)[C@H](NC(=O)[C@H](CCCCN)NC(=O)[C@H](CCCCN)NC(=O)[C@H](CC(C)C)NC(=O)[C@H](C)NC(=O)CNC(=O)[C@@H](NC(=O)[C@H](C)NC(=O)[C@H](CCCCN)NC(=O)[C@@H]1CCCN1C(=O)[C@H](CC(C)C)NC(=O)[C@H](CC(C)C)NC(=O)[C@H](CCCCN)NC(=O)[C@H](Cc1ccccc1)NC(=O)[C@H](Cc1ccccc1)NC(=O)[C@@H](N)Cc1ccccc1)[C@@H](C)CC)C(=O)O [FFFKLLPKAIGALKKI],MIC,Escherichia coli K-12,≥ 128 µM
same,MIC,[4],64 µM
CC[C@H](C)[C@H](NC(=O)[C@H](CCCCN)NC(=O)[C@H](CCCCN)NC(=O)[C@H](CC(C)C)NC(=O)[C@H](CC(C)C)NC(=O)[C@H](CCCCN)NC(=O)[C@H](CCCCN)NC(=O)[C@@H](NC(=O)[C@H](CCCN=C(N)N)NC(=O)[C@H](CCCCN)NC(=O)[C@H](CC(C)C)NC(=O)[C@H](CC(C)C)NC(=O)CN)[C@@H](C)CC)C(=O)N[C@@H](CCCCN)C(=O)N[C@@H](CCCCN)C(=O)N[C@@H](CC(C)C)C(=O)N[C@@H](CC(C)C)C(N)=O [GLLKRIKKLLKKIKKLL],MIC,[5],6.3 µM
same,MIC,[2],12.5 µM
same,MIC,[4],12.5 µM
same,MIC,[6],12.5 µM
CC[C@H](C)[C@H](NC(=O)[C@@H](N)Cc1cnc[nH]1)C(=O)N[C@@H](CCC(N)=O)C(=O)N[C@@H](CCCCN)C(=O)N[C@@H](CCC(=O)O)C(=O)N[C@@H](CC(=O)O)C(=O)N[C@H](C(=O)N1CCC[C@H]1C(=O)N[C@@H](CO)C(=O)N[C@@H](CCC(=O)O)C(=O)N[C@@H](CCCN=C(N)N)C(=O)N[C@@H](Cc1ccc(O)cc1)C(=O)N[C@@H](CC(C)C)C(=O)NCC(=O)N[C@@H](Cc1ccc(O)cc1)C(=O)N[C@@H](CC(C)C)C(=O)N[C@@H](CCC(=O)O)C(=O)N[C@@H](CCC(N)=O)C(=O)N[C@@H](CC(C)C)C(=O)N[C@@H](CC(C)C)C(=O)N[C@@H](CCCN=C(N)N)C(=O)N[C@@H](CC(C)C)C(=O)N[C@@H](CCCCN)C(=O)O)C(C)C [HIQKEDVPSERYLGYLEQLLRLK],MIC,[1],≥ 292 µM
same,MIC,[2],583 µM
same,MIC,[3],≥ 292 µM
NCCCC[C@H](NC(=O)[C@H](CCC(=O)O)NC(=O)[C@H](CC(=O)O)NC(=O)[C@H](CCC(=O)O)NC(=O)[C@H](CC(=O)O)NC(=O)[C@H](CCC(=O)O)NC(=O)[C@@H](N)CC(=O)O)C(=O)N[C@@H](CCCN=C(N)N)C(=O)N[C@@H](CCC(N)=O)C(=O)N1CCC[C@H]1C(=O)N[C@@H](Cc1cnc[nH]1)C(=O)O [DEDEDEKRQPH],MIC,[1],≥ 500 µM
same,MIC,[3],≥ 1000 µM
CC(C)C[C@H](NC(=O)[C@H](CC(C)C)NC(=O)[C@H](CCC(N)=O)NC(=O)[C@H](CCC(=O)O)NC(=O)[C@H](CC(C)C)NC(=O)[C@@H](N)Cc1ccc(O)cc1)C(=O)N[C@@H](CCCN=C(N)N)C(=O)O [YLEQLLR],MIC,[1],≥ 53.5 µM
same,MIC,[2],40.1 µM
same,MIC,[3],≥ 241 µM
CC[C@H](C)[C@H](N)C(=O)N[C@@H](CCCCN)C(=O)N[C@@H](CCCCN)C(=O)N[C@H](C(=O)N[C@H](C(=O)N[C@@H](CCCCN)C(=O)N[C@@H](CCCCN)C(=O)N[C@H](C(=O)N[C@H](C(=O)N[C@@H](CCCCN)C(=O)N[C@@H](CCCCN)C(=O)N[C@H](C(N)=O)[C@@H](C)CC)[C@@H](C)CC)[C@@H](C)CC)[C@@H](C)CC)[C@@H](C)CC [IKKIIKKIIKKI],MIC,Escherichia coli K-12,15.6 µM
same,MIC,Klebsiella pneumoniae,> 500 µM
same,MIC,[7],15.6 µM
same,MIC,[8],≥ 250 µM
CC[C@H](C)[C@H](NC(=O)[C@H](Cc1cnc[nH]1)NC(=O)[C@H](CCCCN)NC(=O)[C@@H](NC(=O)[C@@H](NC(=O)[C@H](CC(=O)O)NC(=O)[C@H](Cc1ccccc1)NC(=O)[C@H](Cc1c[nH]c2ccccc12)NC(=O)CN)C(C)C)C(C)C)C(=O)N[C@@H](C)C(=O)N[C@@H](CCCCN)C(=O)N[C@@H](CCCNC(=N)N)C(=O)N[C@@H](Cc1ccccc1)C(N)=O [GWFDVVKHIAKRF],MIC,Escherichia coli K-12,12.5 µM
same,MIC,[9],≥ 50 µM
CC[C@H](C)[C@H](NC(=O)[C@H](CCCN=C(N)N)NC(=O)[C@H](CCCCN)NC(=O)[C@H](CCCN=C(N)N)NC(=O)[C@@H](NC(=O)[C@H](CCCN=C(N)N)NC(=O)[C@@H](N)CCCCN)[C@@H](C)CC)C(=O)N[C@@H](CCCCN)C(=O)N[C@@H](CCCCN)C(=O)N[C@@H](Cc1c[nH]c2ccccc12)C(=O)N[C@@H](CC(C)C)C(=O)N[C@@H](CCCN=C(N)N)C(N)=O [KRIRKRIKKWLR],MIC,[10],2 µM
same,MIC,[11],2 µM
same,MIC,[12],4 µM
same,MIC,[13],2 µM
same,MIC,[14],4 µM
same,MIC,[15],1 µM
CC(C)C[C@H](NC(=O)[C@H](CCCN=C(N)N)NC(=O)[C@H](CC(N)=O)NC(=O)[C@H](CC(C)C)NC(=O)[C@@H](N)CCCCN)C(=O)N[C@@H](CCCCN)C(=O)N[C@@H](CCC(=O)O)C(=O)N[C@@H](CCCCN)C(=O)N[C@@H](CC(N)=O)C(=O)N[C@@H](CCCCN)C(=O)N[C@@H](C)C(=O)N[C@@H](CCCCN)C(=O)N[C@@H](CC(N)=O)C(=O)N[C@@H](CO)C(=O)N[C@@H](CCCCN)C(=O)N[C@@H](CCC(=O)O)C(=O)N[C@@H](CC(N)=O)C(=O)N[C@@H](CC(N)=O)C(=O)O [KLNRLKEKNKAKNSKENN],MIC,[16],≥ 237 µM
same,MIC,[17],≥ 237 µM
same,MIC,[4],> 237 µM
same,MIC,[18],≥ 237 µM
